Measured values reported in article PMC6346638, “Recognition of Peptidoglycan Fragments by the Transpeptidase PBP4 From Staphylococcus aureus” (Frontiers in Microbiology, 2019).
“Also recorded” adds a separate entry of the source. Non-standard residues stand in square brackets, D forms with d. No end group written: not given here.

What was measured:
[1] = system: PBP4(S75C); experiment: X-ray crystallography, ligand soaking of PBP4(S75C) crystals; assay type: binding, Staphylococcus aureus; conditions: soak with 1 mM ampicillin and 8 mM pentapeptide, 40–60 min; 1.86 Å
Protocol: PBP4(S75C) was crystallized using the sitting drop vapor diffusion method with streak seeding. Protein at 25–35 mg mL^−1 was added to precipitant solution (8 mM zinc chloride, 80 mM sodium acetate pH 5, 100 mM sodium fluoride, and 16% polyethylene glycol 6000) in a 1:1 (v/v) ratio and incubated at 23°C. Immediately after mixing the protein and precipitant solution, the drops were streak-seeded with a housecat whisker that had been swished through a drop containing PBP4(S75C) crystals. […] Crystals were then promptly harvested and stored in liquid nitrogen.
Data collection was performed under cryogenic temperatures (100 K) at the Advanced Light Source synchrotron (U.C. Berkeley) on beamline 5.0.2. Data from one crystal that diffracted to 1.9 Å resolution were processed using Xia2 (Winter et al., [2013]) and XDS (Kabsch, [2010]) with a space group of C121 and merged with Aimless in the CCP4 software package (Winn et al., [2011]). Phaser (McCoy et al., [2007]) was employed to solve the structure by molecular replacement using PDB ID 5TXI as the starting model. The Phenix suite of programs was used for model generation and refinement (Adams et al., [2010]). Briefly, AutoBuild was used with several iterative rounds of manual manipulation of the model with Coot (Emsley et al., [2010]) followed by refinement with Phenix.refine with TLS being used in the later stages of refinement.

[2] = system: PBP4; experiment: X-ray crystallography, ligand soaking of PBP4 crystals; assay type: binding, Staphylococcus aureus; conditions: soaking with ampicillin and synthetic pentapeptide stem
[3] = system: S. aureus laboratory mutant 27s; conditions: deletion of PBP4 in mutant 27s; ref Leski and Tomasz, 2005; cited from earlier work
From the text: S. aureus PBP4 is an unusual class C PBP showing TPase activity in vivo (Loskill et al., [2014]; Hamilton et al., [2017]) and in vitro (Qiao et al., [2014]; Srisuknimit et al., [2017]) in addition to its expected CPase activity.

[4] = system: PBP4(S75C); experiment: PBP4(S75C) acylation by imipenem, native mass spectrometry; assay type: binding, Staphylococcus aureus; conditions: 1.25 mM imipenem, ~23°C, 30 min, pH 6; MS
Protocol: For mass spectrometry analysis, samples were thawed and diluted 500 times in 5% acetonitrile and 0.1% formic acid. 5 μL of each sample was injected onto a 5-mm C4 column connected to a Waters Xevo GS-2 QTof mass spectrometer via a NanoAquity UPLC system. Samples were eluted in a 2-min gradient from 5 to 100% acetonitrile at a flow rate of 20 μL min^−1. Mass spectra (Supplementary Figure S3) were summed and peak masses deconvoluted using Waters' MassLynx software (V4.1).

[5] = system: PBP4; conditions: 10 μM PBP4, 10 mM Tris/HCl pH 7.5, 10 mM MgCl2, 0.1% Triton X-100, 37°C overnight; HPLC
Protocol: Assays were carried out in a final volume of 50 μL containing 10 mM Tris/HCl at pH 7.5, 10 mM MgCl2, 0.1% Triton X-100, and 10 μM PBP4 or PBP4(S75C). A ~5 mg mL^−1 suspension of PG or 25 μL of a ~5 mg mL^−1 solution of muropeptides were added and the reaction mixture was incubated at 37°C overnight. The enzymatic reaction was stopped by boiling the samples for 10 min. Muropeptides were reduced and analyzed by HPLC as described (Boneca et al., [1997]).

[6] = system: PBP4(S75C); experiment: Liquid-state NMR titration (15N-BEST-TROSY chemical shift perturbation); assay type: binding, Staphylococcus aureus; conditions: lactoyl-tetrapeptide up to 52 molar equivalents, 326 μM protein; 25°C, 50 mM potassium phosphate pH 6.5
Protocol: NMR Titration Experiments
Interaction studies with ^15N-labeled PBP4(S75C) and different substrates were monitored by superimposition of ^15N-BEST-TROSY spectra at 25°C for different substrate-to-protein ratio. Synthetic peptide stems and peptidoglycan fragments were extensively dialyzed against water using a Spectra/PorTM dialysis membrane with a 100–500 Da cutoff (Spectrum Laboratories, Inc.) and lyophilized before preparation of a few-mM stock solution in the protein buffer, with 50 mM potassium phosphate at pH 6.5. A 326-μM solution of PBP4(S75C) was titrated with 2, 8, 22, and 52 molar equivalents of tetrapeptide. […] CcpNmr was used to monitor protein chemical shift perturbations (CSP) for every assigned amide resonance by superimposition of the ^15N-BEST-TROSY spectra. CSPs (Δδ) were calculated on a per-residue basis for the highest substrate-to-protein ratio as follows:
where γN and γH are the ^1H and ^15N gyromagnetic ratios, respectively, and δ^XPBP4(S75C):sub , and δ^XPBP4(S75C) are the protein resonance chemical shift value in the presence and absence, respectively, of the substrate at the highest ratio.
The following substrates were added at 25 °C on 150 -µM PBP4(S75C) solution
in 50 mM potassium phosphate buffer, pH 6.5: (A) Tetrapeptide at approximately 52 molar […]
overlapped residues, for which CSPs could not be determined.

[7] = system: ceftobiprole-resistant Staphylococcus aureus strain (CRB); conditions: pbp4 mutations giving E183A and F241R; ref Banerjee et al., 2010; cited from earlier work
From the text: The replacement of E183 by an alanine disrupts the Van-der-Waals interaction between this residue and ...

[8] = target: 15N-labeled PBP4(S75C) from Staphylococcus aureus, His-tag not cleaved (NMR sample) (S. aureus); experiment: NMR titration; 15N-BEST-TROSY spectra at 25°C; 326 μM 15N-labeled PBP4(S75C) titrated with 2, 8, 22 and 52 molar equivalents of unlabeled tetrapeptide; 50 mM potassium phosphate pH 6.5

Q: For “HO-D-Lac-L-Ala-D-iGln-[L-Lys(Gly)5]-D-Ala-D-Ala-COOH [pentapeptide, synthetic branched lactoyl-peptide resembling the native S. aureus PG stem]”, which “electron density of soaked ligand, PBP4(S75C) crystals” value [1] is on record?
A: unable to identify electron density

Q: And the “electron density of soaked ligand, PBP4 crystals” value [2]?
A: unable to identify electron density

Q: Which “electron density of soaked ligand, PBP4(S75C) crystals” value [1] does the source give for `CC1(C)S[C@@H]2[C@H](NC(=O)[C@H](N)c3ccccc3)C(=O)N2[C@H]1C(=O)O` [ampicillin] here?
A: unable to identify electron density

Q: And the “electron density of soaked ligand, PBP4 crystals” value [2]?
A: unable to identify electron density

Q: With `CO/N=C(\C(=O)N[C@@H]1C(=O)N2C(C(=O)O)=CCS[C@H]12)c1csc(N)n1` [ceftizoxime] as the molecule, how does the “susceptibility on deletion of PBP4” value [3] read?
A: increase in ceftizoxime susceptibility

Q: With `C[C@@H](O)[C@H]1C(=O)N2C(C(=O)O)=C(SCCN=CN)C[C@H]12` [imipenem] as the molecule, how does the “acylation of PBP4(S75C)” value [4] read?
A: binds covalently to PBP4S75C, to form a stable acylenzyme; also recorded: sensitive to acylation

Q: For “disaccharide pentapeptide(Gly5) [disaccharide pentapeptide(Gly5) (peak5)]”, which “DD-CPase activity of PBP4: conversion of monomeric muropeptide” value [5] is on record?
A: nearly quantitatively converted to disaccharide tetrapeptide(Gly5) (peak A)

Q: For “HO-D-Lac-L-Ala-D-iGln-L-Lys(Gly)5-D-Ala-COOH [lactoyl-tetrapeptide]”, which “chemical shift perturbations for the amide resonances of PBP4(S75C)” value [6] is on record?
A: did not create any significant chemical shift perturbations

Q: For `Nc1nc(/C(=N/O)C(=O)N[C@@H]2C(=O)N3C(C(=O)O)=C(/C=C4\CCN([C@@H]5CCNC5)C4=O)CS[C@H]23)ns1` [ceftobiprole], which “resistance of CRB strain” value [7] is on record?
A: resistant

B1: HO-D-Lac-L-Ala-D-iGln-L-Lys(Gly)5-D-Ala-COOH tetrapeptide (peptide)
chain 1: {HO‑D‑Lac}-A[diGln]K[dA]-OH
chain 2: GGGGG
modifications: not fully specified (some residues); also: chain 2 (Gly)5 attached to Lys side chain
Q: With B1 as the molecule, how does the Kd [8] read?
A: > 110 mM
